US12686704B2, “Procoagulant peptides and use thereof” (RAMBAM MED-TECH LTD., priority 2021, dated 2026)

How the values were obtained:
ICR mice = assay: Wound healing after full thickness skin incision in ICR mice; format: in vivo, mouse; conditions: for number of capillaries (vessels) in wound skin tissue: H&E staining at end of experiment, FIGS. 4D-4E; for wound healing (wound size): S.C. opposite to the wound on alternate days for one week, FIGS. 4A-4B
Procedure: FIGS. 4A-4E include images, micrographs, and graphs showing that that modified heparanase procoagulant peptides of the invention enhance wound healing. (4A) Full thickness incision of 10 mm was made in the back skin of ICR (normal, no genetic background) mice. On alternate days, for one week after surgery, peptide 16 or peptide 16AC was injected subcutaneously (S.C.) opposite to the wound at the indicated dose. Control group was injected the vehicle (PBS). […] Similar results were observed when the peptides were topically applied as a cream preparation (4C). n—number of mice. Mann-Whitney U test was used. Results represent mean±SD, **p<0.001, ***p<0.0001. (4D) At the end of the experiment the mice were sacrificed and the skin tissue from the wound site excised, and histologically analyzed using hematoxylin and eosin (H&E) staining. Representative images are shown. […] The number of capillaries presented reflects the median and range of five different fields. Mann-Whitney U test was used. Results represent mean±SD, *p<0.01, **p<0.001.
Full thickness incision of 10 mm was made in the back skin of ICR (normal, no genetic background) mice. On alternate days, for one week after surgery, peptide 16 was injected sub-cutaneous (S.C.) opposite to the wound at the indicated dose. Control group was injected the vehicle (PBS). […] Similar results were obtained when the peptides were applied topically in a cream preparation (FIG. 4C). At the end of the experiment the mice were sacrificed and the skin tissue from the wound site was analyzed using H&E staining.

rat = assay: Rat models of uncontrolled hemorrhage (spleen transection, liver laceration); format: in vivo; conditions: for bleeding (blood loss): 150 μg/kg subcutaneous half an hour before surgery, I.V. 2 minutes following trauma, or topical, FIGS. 2A-2F; for bleeding (blood loss) / bleeding time: vs PBS control; for bleeding time: FIG. 2G
Procedure: FIGS. 2A-2I include vertical bar graphs showing the effect of modified heparanase procoagulant peptides of the invention using different rat bleeding models. Two rat models of uncontrolled hemorrhage were applied. The models include spleen transection (2A) and liver laceration (2B). Blood loss was recorded every 2 minutes for the first 10 minutes after injury and at 5-minutes intervals thereafter for a total of 30 minutes. Shed blood were collected by placing reweighed gauze below the organ targeted for injury. The gauze was changed and weighed at the blood-loss intervals. Peptides 16 and 16AC were injected subcutaneously (150 μg/kg) half an hour before surgery (2A-2B) or intravenously (I.V.) in the saphenous vein (150 μg/kg) 2 minutes following the trauma (2C, 2D, 2H, and 2I). The third route of administration was topical application (150 μg/kg) on the incision site (2E-2F). The peptides were dissolved in phosphate-buffered saline (PBS) and added at a rate of a drop every 5 seconds. Control group (‘C’) was administered (either subcutaneously, intravenously, or topically) with the vehicle phosphate buffered saline (PBS). […] Mann-Whitney U test was used. Results represent mean±SD. *p<0.01, **p<0.001. In addition to Peptide 16 and Peptide 16AC, Peptide 16C, and Peptide 16A were also analyzed and compared in (2H and 2I).
Two rat models of uncontrolled hemorrhage were applied as previously described (Morgan et al., 2015; JAMA Surg.). The models included spleen transection (FIG. 2A) and liver laceration (FIG. 2B). Briefly, blood loss was recorded every 2 minutes for the first 10 minutes after injury and at 5-minute intervals thereafter for a total of 30 minutes. Shed blood were collected by placing reweighed gauze below the organ targeted for injury. The gauze was changed and weighed at the blood-loss intervals. Peptides 16 and 16AC were injected subcutaneous (150 μg/kg) half an hour before surgery (FIGS. 2A-2B) or intra-venous (I.V.) in the saphenous vein (150 μg/kg) 2 minutes following the trauma (FIGS. 2C-2D). The third route of administration was topical application (150 μg/kg) on the incision site (FIGS. 2E-2F). The peptides, dissolved in phosphate-buffered saline (PBS), were added at a rate of a drop every 5 seconds. Control (C) group was injected or topical applied with the vehicle phosphate buffered saline (PBS).

Substance	number of capillaries (vessels) in wound skin tissue (ICR mice)	wound healing (wound size) (ICR mice)	bleeding (blood loss) (rat)	bleeding time (rat; 150 μg/kg)	number of capillaries (vessels) in wound skin tissue (ICR mice; listed as peptide 16AC)	effect in reducing the bleeding, comparison between peptides (rat; 150 μg/kg, FIGS. 2A-2I (16C and 16A: I.V., FIGS. 2H-2I))
GSKRRKLRVYLHCT [Peptide 16, peptide comprising the procoagulant domain of heparanase, non-modified]	significant increase of capillaries	significantly enhanced wound healing	significant reduction	significant reduction	–	–
acetyl-GSKRRKLRVYLHCT-amid (Ac-GSKRRKLRVYLHCT-NH2) [Peptide 16AC, peptide 16 comprising a C-terminal amid group and an N-terminal acetyl group]	significantly better effect	significantly better effect on wound size	significant reduction	significant reduction	significant increase of capillaries	significantly better effect in reducing the bleeding compared to peptide 16
